Key:
[1] = test system: Abutilon theophrasti Medik; assay: Fumigant test on seed germination in soil, Abutilon theophrasti Medik; assay type: in vivo; conditions: for Abutilon theophrastic Medik (seeds germinated): 14 seeds in soil, 2 days exposure, counted after 10 days
Method: (§1) In particular, in 440 mL pressure vessels, fourteen seeds of Abutilon theophrasti Medik and fifteen seeds of Lolium multiflorum Lam were thoroughly mixed with 50 mL (approximately 30 grams) of soil and 6 ml of water. The filled vessels were kept at room temperature for 20-24 hours to allow the seeds to imbibe water before treatment. The vessels were sealed and evacuated, and then 80 ml, 160 ml and 440 ml, respectively, of gaseous HFPO was added. The vessels were thoroughly mixed and placed horizontally on the laboratory bench at ambient temperature for two days. The contents of each bottle were transferred to a plastic sterile Petri dish containing 7 mL of water. The Petri dishes were sealed with parafilm and incubated in the laboratory at ambient temperature. After 10 days, the number of germinated seeds was counted.

Lolium multiflorum Lam = assay: Fumigant test on seed germination in soil, Lolium multiflorum Lam; assay type: in vivo; conditions: for Loliium multiflorum Lam (seeds germinated): 15 seeds in soil, 2 days exposure, counted after 10 days
Method: as §1

[2] = Volatility of aqueous fumigant compositions with and without surfactant (weight loss); assay type: physicochemical; conditions: 10 grams HFPO + 4.0 grams Tween 80 in 40.0 grams water vs. 10.0 grams HFPO in 40 grams water; 20° C., vent open, weight loss every 30 seconds; FIG. 1
Method: Experimentation was carried out to determine the volatility of aqueous fumigant compositions, both with and without inclusion of a surfactant. In each case, HFPO was placed in a chilled 500 ml Fischer Porter tube that was equipped with a vent to remove any gases. The vessel was cooled to 0° C. and was charged with varying amounts of water, HFPO and surfactant. The temperature was equilibrated to 20° C. and the reactor was placed on a balance. The vent tube was opened and the weight loss was recorded every 30 seconds.
In analyzing the effects of adding surfactant to an aqueous solution of HFPO, 10.0 grams of HFPO was added to 40 grams of water. In a separate experiment, 10 grams of HFPO and 4.0 grams of Tween™ 80 were added to 40.0 grams of water. FIG. 1 provides a graphical representation of the numerical data comparing the volatility of an aqueous solution of HFPO, both with and without inclusion of the Tween™ 80 nonionic surfactant.

[3] = 80 ml gaseous HFPO in 440 mL vessel
[4] = 160 ml gaseous HFPO in 440 mL vessel
[5] = 440 ml gaseous HFPO in 440 mL vessel

SMILES: FC(F)(F)C1(F)OC1(F)F (stereo not drawn) [HFPO, 1,2-hexafluoropropylene oxide]
- Abutilon theophrastic Medik (seeds germinated) [1, 3]: 0 seeds germinated
- Abutilon theophrastic Medik (seeds germinated) [1, 4]: 0 seeds germinated
- Abutilon theophrastic Medik (seeds germinated) [1, 5]: 0 seeds germinated
- seed germination (in words) ([1]; seeds of the broadleaf species Abutilon theophrasti Medik): completely prevented seed germination
- Loliium multiflorum Lam (seeds germinated) (Lolium multiflorum Lam; [3]): 0 seeds germinated
- Loliium multiflorum Lam (seeds germinated) (Lolium multiflorum Lam; [4]): 0 seeds germinated
- Loliium multiflorum Lam (seeds germinated) (Lolium multiflorum Lam; [5]): 0 seeds germinated
- seed germination (in words) (Lolium multiflorum Lam; seeds of the grass weed species Lolium multiflorum Lam): completely prevented seed germination
- retention of HFPO in aqueous solution (volatility) [2]: inclusion of the surfactant provides for longer retention of the HFPO in solution
